Data reported in patent US11268950B2, “Use of engineered renal tissues in assays” (Organovo, Inc., priority 2016, dated 2022).
Values joined by “and” are separate entries in the source; they are usually repeats but may differ in a detail not shown here. Identical values can stand only once. “Also recorded” adds a separate entry of the source. One block for each compound: values may come before it.

Columns and labels:
[1] = system: 3D PT tissues; assay: GGT activity of 3D PT tissues (epithelial function); format: cell-based, human; settings: 5 μM cisplatin, daily for 7 days
Experimental: GGT activity was measured according to the manufacturer's protocol (Sigma Aldrich, St. Louis, Mo.). Tissues were washed twice with DPBS and lysed in GGT assay buffer in a Precellys® lysis tube (Precellys, Rockville, Md.). Lysate was assessed for GGT activity by comparison to a standard curve integration of absorbance normalized for volume and duration of incubation period at 37° C. using GraphPad Prism® software (GraphPad, San Diego, Calif.). Data shown represent the average GGT activity in mIU/ml for analysis of GGT function over time, or percent relative to vehicle for toxicity studies.

[2] = system: 3D PT tissues; assay: LDH release from 3D PT tissues; format: cell-based, human; settings: 5 μM cisplatin alone, treatment day 5 (peak)
Experimental: Lactate dehydrogenase (LDH) activity assay was performed according to the manufacturer's protocol (Abcam, Cambridge, Mass.). Conditioned media was collected from 3D PT tissues and further diluted in fresh media to ensure that the LDH activity of the sample was within the linear range of the assay. Samples were measured on a microplate reader (BMG Labtech, Cary, N.C.). LDH activity was determined by standard curve integration of absorbance normalized for volume and duration using GraphPad Prism® software (GraphPad, San Diego, Calif.). Data shown represent the fold change in LDH activity relative to vehicle control for each day of sampling.

[3] = system: 3D PT tissues; assay: PCNA staining, RPTEC proliferation in 3D PT tissues; format: cell-based, human; settings: daily for 7 days
Experimental: 3D PT were fixed overnight in 2% paraformaldehyde (Electron Microscopy Sciences, Hatfield, Pa.). Tissues were oriented for transverse sectioning by pre-embedding in HistoGel™ (Thermo Fisher, Carlsbad, Calif.) and were then dehydrated and infiltrated with paraffin by automated processing on a Tissue-Tek VIP® tissue processing system (Sakura Finetek USA, Torrance, Calif.). Tissues were sectioned at 5 μM on a Leica® Reichert-Jung® Histocut microtome (Leica Biosystems, Buffalo Grove, Ill.). Hematoxylin and eosin (H&E) or Gomori's trichrome (TCM) stains were generated using a Leica® Autostainer XL (Leica Biosystems, Buffalo Grove, Ill.) according to manufacturer's instructions. Immunohistochemistry was performed as previously described (King et al., 2013) using the primary antibodies in Table 1. Following overnight incubation with primary antibodies at 4° C., sections were stained with AlexaFluor®-conjugated secondary antibodies (Thermo Fisher, Carlsbad, Calif.) at 1:200 dilution. For P-gp and SGLT2 detection, tyramide signal amplification was performed according to the manufacturer's instructions (Thermo Fisher, Carlsbad, Calif.). Slides were counterstained and mounted with FluoroGel II with DAPI (Electron Microscopy Sciences, Hatfield, Pa.). H&E and TCM images were acquired on a Zeiss® Axioskop with Zeiss® Zen software (Zeiss Microscopy, Thornwood, NY). Immunofluorescent images were acquired on a Zeiss® Axio® Imager A2 with Zeiss® Zen software.

[4] = system: 3D PT tissues; assay: H&E histology of 3D PT tissues; settings: daily for 7 days; 5 μM cisplatin, 1 mM cimetidine
Experimental: 3D PT were fixed overnight in 2% paraformaldehyde (Electron Microscopy Sciences, Hatfield, Pa.). Tissues were oriented for transverse sectioning by pre-embedding in HistoGel™ (Thermo Fisher, Carlsbad, Calif.) and were then dehydrated and infiltrated with paraffin by automated processing on a Tissue-Tek VIP® tissue processing system (Sakura Finetek USA, Torrance, Calif.). Tissues were sectioned at 5 μM on a Leica® Reichert-Jung® Histocut microtome (Leica Biosystems, Buffalo Grove, Ill.). Hematoxylin and eosin (H&E) or Gomori's trichrome (TCM) stains were generated using a Leica® Autostainer XL (Leica Biosystems, Buffalo Grove, Ill.) according to manufacturer's instructions. Immunohistochemistry was performed as previously described (King et al., 2013) using the primary antibodies in Table 1. Following overnight incubation with primary antibodies at 4° C., sections were stained with AlexaFluor®-conjugated secondary antibodies (Thermo Fisher, Carlsbad, Calif.) at 1:200 dilution. For P-gp and SGLT2 detection, tyramide signal amplification was performed according to the manufacturer's instructions (Thermo Fisher, Carlsbad, Calif.). Slides were counterstained and mounted with FluoroGel II with DAPI (Electron Microscopy Sciences, Hatfield, Pa.). H&E and TCM images were acquired on a Zeiss® Axioskop with Zeiss® Zen software (Zeiss Microscopy, Thornwood, NY). […]

[5] = target: T1, SGLT2 (Homo sapiens, UniProt P31639); assay: Glucose (2-DG) uptake colorimetric assay in 3D PT tissues; format: cell-based
T1 construct: SGLT2 protein expression was detected primarily at the apical surface of RPTEC on 3D PT tissues; endogenous in cells; host or cells: bioprinted 3D PT tissue: primary human RPTEC on an interstitium of primary human renal fibroblasts and HUVEC
T1 sequence (P31639 1-672): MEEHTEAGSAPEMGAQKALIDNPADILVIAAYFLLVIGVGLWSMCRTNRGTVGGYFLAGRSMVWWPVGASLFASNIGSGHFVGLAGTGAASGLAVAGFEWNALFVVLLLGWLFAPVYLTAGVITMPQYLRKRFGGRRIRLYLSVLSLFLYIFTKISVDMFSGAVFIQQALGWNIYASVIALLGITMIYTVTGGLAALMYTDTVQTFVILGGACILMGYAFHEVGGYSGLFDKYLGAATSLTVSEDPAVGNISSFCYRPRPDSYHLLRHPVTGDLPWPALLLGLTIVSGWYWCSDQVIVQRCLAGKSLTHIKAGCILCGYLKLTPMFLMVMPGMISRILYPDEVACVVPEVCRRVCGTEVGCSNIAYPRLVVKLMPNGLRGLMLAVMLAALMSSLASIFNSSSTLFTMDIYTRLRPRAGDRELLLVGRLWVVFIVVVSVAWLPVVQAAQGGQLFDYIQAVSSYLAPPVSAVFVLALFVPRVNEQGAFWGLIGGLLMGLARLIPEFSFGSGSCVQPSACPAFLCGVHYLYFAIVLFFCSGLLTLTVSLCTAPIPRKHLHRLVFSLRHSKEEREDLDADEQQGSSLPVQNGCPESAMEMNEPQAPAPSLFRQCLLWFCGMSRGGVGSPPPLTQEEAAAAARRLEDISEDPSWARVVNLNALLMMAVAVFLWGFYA
Experimental: Glucose uptake in 3D PT tissues was detected and quantified according to the manufacturer's protocol (Abeam, Cambridge, Mass.). Insulin-Transferrin-Selenium (Gibco, Carlsbad, Calif.) was used to stimulate glucose uptake and canagliflozin (Santa Cruz Biotech, Dallas, Tex.) was used to inhibit SGLT2 function. […] Tissues were then pretreated with 1X insulin or 500 μM canagliflozin for 20 minutes, followed by addition of 1 mM 2-deoxyglucose. Tissues were washed extensively with PBS and lysed in extraction buffer in Precellys® lysis tubes (Precellys, Rockville, Md.).

[6] = target: T2, P-gp (Homo sapiens, UniProt P08183); assay: Rhodamine 123 transport / P-gp efflux in 3D PT tissues; format: cell-based; settings: image quantification, 2 h, 5 μM zosuquidar
T2 construct: P-gp protein expression was detected at the apical surface of the RPTEC cells in the 3D PT model; endogenous in cells; host or cells: bioprinted 3D PT tissue: primary human RPTEC on an interstitium of primary human renal fibroblasts and HUVEC
T2 sequence (P08183 whole entry): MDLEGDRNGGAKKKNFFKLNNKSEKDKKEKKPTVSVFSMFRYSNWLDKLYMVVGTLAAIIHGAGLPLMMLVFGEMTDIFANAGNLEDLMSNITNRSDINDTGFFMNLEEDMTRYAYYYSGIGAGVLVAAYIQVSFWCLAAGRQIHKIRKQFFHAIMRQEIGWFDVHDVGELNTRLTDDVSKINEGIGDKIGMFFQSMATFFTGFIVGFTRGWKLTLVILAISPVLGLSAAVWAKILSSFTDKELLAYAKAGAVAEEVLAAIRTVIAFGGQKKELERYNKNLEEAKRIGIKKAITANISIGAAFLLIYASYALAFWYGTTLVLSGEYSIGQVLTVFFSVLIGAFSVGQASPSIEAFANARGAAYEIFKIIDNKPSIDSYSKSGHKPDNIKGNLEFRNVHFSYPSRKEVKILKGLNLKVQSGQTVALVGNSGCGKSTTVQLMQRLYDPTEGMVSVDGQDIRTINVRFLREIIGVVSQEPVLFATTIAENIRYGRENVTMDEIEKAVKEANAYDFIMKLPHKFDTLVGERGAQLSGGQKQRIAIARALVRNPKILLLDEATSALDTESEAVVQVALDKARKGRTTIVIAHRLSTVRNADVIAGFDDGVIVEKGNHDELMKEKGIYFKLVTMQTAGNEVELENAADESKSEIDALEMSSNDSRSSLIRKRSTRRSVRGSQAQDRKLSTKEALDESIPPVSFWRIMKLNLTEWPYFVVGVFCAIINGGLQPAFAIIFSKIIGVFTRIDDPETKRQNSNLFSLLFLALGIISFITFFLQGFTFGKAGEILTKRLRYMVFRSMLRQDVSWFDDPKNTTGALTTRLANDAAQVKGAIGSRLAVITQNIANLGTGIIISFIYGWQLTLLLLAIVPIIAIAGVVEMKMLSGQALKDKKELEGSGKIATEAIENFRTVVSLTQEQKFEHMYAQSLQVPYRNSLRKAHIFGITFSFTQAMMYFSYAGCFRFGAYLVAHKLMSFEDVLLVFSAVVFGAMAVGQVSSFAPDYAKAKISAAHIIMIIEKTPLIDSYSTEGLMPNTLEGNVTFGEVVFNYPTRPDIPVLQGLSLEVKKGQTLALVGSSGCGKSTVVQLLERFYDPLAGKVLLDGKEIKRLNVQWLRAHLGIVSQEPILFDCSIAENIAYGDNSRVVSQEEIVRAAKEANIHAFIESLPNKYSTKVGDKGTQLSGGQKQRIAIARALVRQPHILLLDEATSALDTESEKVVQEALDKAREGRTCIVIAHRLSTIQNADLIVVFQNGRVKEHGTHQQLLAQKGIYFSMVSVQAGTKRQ
Experimental: Both apical and basolateral sides of tissues were then pre-incubated for 20 min at 37° C. in assay buffer in the presence or absence of 5 μM zosuquidar (Sigma Aldrich, St. Louis, Mo.). Following pre-treatment, tissues were dosed on the basolateral side with 1 μM rhodamine 123 (Molecular Probes, Eugene, Oreg.) with or without 5 μM zosuquidar for 2h at 37° C. After incubation, the tissues were washed with cold assay buffer, fixed with 2% PFA, and cryosectioned. Images were captured at the same exposure time across all conditions. Fluorescence intensity, corrected for background and relative area, was calculated in Image J (National Institutes of Health, Bethesda, Md.) and graphed as fold change relative to control using GraphPad Prism® software (GraphPad, San Diego).

[7] = system: ExVive™ Human Kidney Tissue; assay: Resazurin conversion in ExVive Human Kidney Tissue; format: cell-based; settings: 0.37-10 ng/ml daily for seven days
Experimental: (§1) As described in this present disclosure, the ExVive™ Human Kidney Tissue (Organovo, San Diego, Calif.) is a fully human three-dimensional (3D), bioprinted tissue comprised of an apical layer of polarized primary renal proximal tubule epithelial cells (RPTECs) supported by a collagen IV-rich tubulointerstitial interface of primary renal fibroblasts and endothelial cells. As renal fibrosis is a common downstream effect of drug-induced injury, the ExVive™ Human Kidney Tissue was treated with Transforming Growth Factor R (TGFI3 or TGFbeta), a key player of the fibrotic response, for purposes of evaluating tubulointerstitial fibrosis. Thus, to induce renal fibrosis, a healthy ExVive™ Human Kidney Tissue was treated with TGFI3, a key player of the fibrotic response. In particular, each healthy ExVive™ Human Kidney Tissue was dosed daily for seven days with vehicle control, 0.37 ng/ml TGFβ, 1.1ng/m1 TGFβ, 3.3 ng/ml TGFβ, or 10 ng/m1 TGFβ, respectively. Subsequently, after the ExVive™ Human Kidney Tissue was treated with TGFβ, an assessment of the viability and epithelial cell functions of this ExVive™ Human Kidney Tissue was conducted. […] Data shown is the average of 3 tissue samples per condition and is represented as the fold change relative to the vehicle control. *p<0.05; ***p<0.001 for each condition compared to vehicle control.

[8] = system: ExVive™ Human Kidney Tissue; assay: GGT activity in ExVive Human Kidney Tissue; format: cell-based; settings: 0.37-10 ng/ml daily for seven days
Experimental: as §1

[9] = system: ExVive™ Human Kidney Tissue; assay: Fibrosis-related gene expression by semi-quantitative RTPCR; format: cell-based; settings: 0.37-10 ng/ml daily for seven days
Experimental: Fibrosis-related gene expression was also assessed on this ExVive™ Human Kidney Tissue treated with TGFβ. […] Data shown is the average of 3 tissue samples per condition. *p<0.0001 for each condition compared to vehicle control.

[10] = system: ExVive™ Human Kidney Tissue; assay: ECM deposition (Gomori's Trichrome, Sirius red) in ExVive tissue; format: cell-based; settings: 0.37-10 ng/ml daily for seven days
From the text: Data represents the average of 4 technical replicates per tissue, 3 tissues per condition and is represented as the fold change relative to the vehicle control following normalization to total protein content as measured by Fast Green staining. *p<0.05 for each condition compared to vehicle control.

[11] = system: 3D PT tissues; settings: OCT2 inhibition by cimetidine
From the text: 3D PT Novo View™ Tissues were fabricated as described (Nguyen et al., 2016). Briefly, cultured renal fibroblasts and HUVEC were combined in a 50:50 ratio and resuspended in NovoGel® Bio-Ink, and then bioprinted onto 0.4 μm Transwell® clear polyester membrane inserts in a 24-well plate (Coming Costar, Coming, NY) using a NovoGen Bioprinter® Instrument (Organovo Inc., San Diego, Calif.) with previously established protocols (Forgacs et al., 2012; Murphy et al., 2015; Nguyen et al., 2016). Following bioprinting, NovoView′ Tissues were cultured in NovoView™ Kidney Media (Organovo, San Diego, Calif.). On culture day 3, primary RPTEC cells were added to the tissues in a suspension of 1.25×10^6 cells/ml in RPTEC media. […]
Assessment of metabolic activity as a surrogate for tissue viability and health was performed by alamarBlue™ assay according to the manufacturer's protocol (Thermo Fisher, Carlsbad, Calif.). […] After incubation, the alamarBlue′ solution was removed and fluorescence was measured on a BMG Labtech POLARstar® Omega reader (Cary, N.C.) with an excitation filter of 560 nm and an emission filter of 590 nm. Graphed data represent the percent relative fluorescence units (RFU) compared to blank for metabolic activity over time, or the percent RFU compared to vehicle control for toxicity studies.

[12] = humans, Zhang and Zhou, 2012; cited from earlier work
[13] = system: 3D PT tissues; assay: Passive permeability (Papp) of Lucifer yellow across 3D PT tissues; format: in vitro ADME, human; settings: for Papp: Lucifer yellow 250 μM, 1 h, individual tissues 1-6 and average
Experimental: Tissues were then dosed with 250 μM Lucifer yellow (Thermo Fisher, Carlsbad, Calif.) to the apical compartment and fresh assay buffer in the basolateral (receiver) compartment. Following incubation for 1 h at 37° C., samples were taken from both the apical and basolateral compartments. Fluorescence in each sample was measured on a BMG plate reader with an excitation filter of 490 nm and an emission filter of 540 nm (BMG Labtech, Cary, N.C.) and normalized to a standard curve for quantification. Papp was calculated with equation 1, where V represents the volume of Lucifer yellow solution, T is the duration of the incubation, D0 is the concentration of Lucifer yellow applied to the cells, and A is the growth area of the Transwell® insert. Papp=(V/A×D0))*(ΔD/ΔT) Equation 1: […]

[14] = target: T3, ACE (Homo sapiens, UniProt P12821); assay: ACE function: conversion of angiotensin I to angiotensin II (ELISA); format: cell-based; settings: after 5 ng/ml human angiotensin I for 24 h
T3 construct: ACE protein was detected in both conditioned media and tissue lysates, with higher detection in the tissue lysates; endogenous in cells; host or cells: bioprinted 3D PT tissue: primary human RPTEC on an interstitium of primary human renal fibroblasts and HUVEC
T3 sequence (P12821 30-1306): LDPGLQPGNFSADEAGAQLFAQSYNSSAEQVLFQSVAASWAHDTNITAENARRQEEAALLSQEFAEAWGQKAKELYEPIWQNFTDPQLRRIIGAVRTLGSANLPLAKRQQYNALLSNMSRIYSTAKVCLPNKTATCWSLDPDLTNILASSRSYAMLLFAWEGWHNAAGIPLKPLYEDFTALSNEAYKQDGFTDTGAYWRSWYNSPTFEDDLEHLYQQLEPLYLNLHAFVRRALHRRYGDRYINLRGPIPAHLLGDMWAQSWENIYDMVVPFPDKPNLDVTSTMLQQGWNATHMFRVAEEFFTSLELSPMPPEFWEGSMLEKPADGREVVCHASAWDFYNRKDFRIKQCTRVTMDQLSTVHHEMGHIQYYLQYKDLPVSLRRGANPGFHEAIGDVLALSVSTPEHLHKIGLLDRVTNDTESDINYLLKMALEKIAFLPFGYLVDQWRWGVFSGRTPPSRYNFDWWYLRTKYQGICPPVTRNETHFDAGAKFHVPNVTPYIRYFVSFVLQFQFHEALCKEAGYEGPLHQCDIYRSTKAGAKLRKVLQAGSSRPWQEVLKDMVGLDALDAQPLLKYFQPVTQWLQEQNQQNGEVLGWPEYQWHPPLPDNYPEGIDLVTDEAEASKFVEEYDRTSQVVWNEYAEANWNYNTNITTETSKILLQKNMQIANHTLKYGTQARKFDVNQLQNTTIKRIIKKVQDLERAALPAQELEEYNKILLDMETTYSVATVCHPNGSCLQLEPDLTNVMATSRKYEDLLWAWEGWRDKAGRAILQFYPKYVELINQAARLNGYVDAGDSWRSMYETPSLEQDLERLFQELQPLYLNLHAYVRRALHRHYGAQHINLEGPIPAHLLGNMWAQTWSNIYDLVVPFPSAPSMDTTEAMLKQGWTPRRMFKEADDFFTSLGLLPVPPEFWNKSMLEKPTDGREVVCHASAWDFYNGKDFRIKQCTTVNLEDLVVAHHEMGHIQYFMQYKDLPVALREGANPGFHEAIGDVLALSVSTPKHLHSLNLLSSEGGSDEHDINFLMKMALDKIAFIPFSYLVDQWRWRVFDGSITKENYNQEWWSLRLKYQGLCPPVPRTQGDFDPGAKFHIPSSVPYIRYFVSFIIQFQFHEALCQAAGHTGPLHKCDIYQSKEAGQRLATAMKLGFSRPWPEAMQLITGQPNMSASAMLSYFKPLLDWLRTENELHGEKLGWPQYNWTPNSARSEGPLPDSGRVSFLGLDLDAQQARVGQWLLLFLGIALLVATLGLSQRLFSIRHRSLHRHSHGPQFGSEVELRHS
Experimental: To evaluate ACE enzyme function, 3D PT tissues were treated for 24 h with 5 ng/ml human angiotensin I (Abeam, Cambridge, Mass.) and angiotensin II was then detected using a competitive ELISA kit from Sigma per the manufacturer's instructions (Sigma-Aldrich, St. Louis, Mo.). Plates were read at 450 nm within 30 minutes of addition of the stop solution (BMG Labtech, Cary, N.C.). The concentration of angiotensin II in the test samples was determined by comparison to the standard curve using GraphPad Prism® software (GraphPad, San Diego, Calif.).

Compound: N.N.[Cl][Pt][Cl] [cisplatin]
reduction in GGT activity [1]: ~50%
LDH release, increase over vehicle controls [2]: 3 fold
RPTEC proliferation (PCNA) [3]: dose-dependent proliferative response; also recorded: dose-dependent increase in proliferating RPTEC
epithelial morphology (H&E) [4]: more squamous morphology and loss of nuclei

decrease of insulin-induced intracellular 2-DG ([5]; normal tissue media, co-administration with insulin, 500 μM canagliflozin): 50%
Compound: Cc1ccc([C@@H]2O[C@H](CO)[C@@H](O)[C@H](O)[C@H]2O)cc1Cc1ccc(-c2ccc(F)cc2)s1 [canagliflozin]
effect on insulin-induced glucose uptake ([5]; tissues starved overnight, 500 μM canagliflozin): significantly reduced by canagliflozin to levels indistinguishable from the control tissues

increase in fluorescence over control tissues [6]: 4 fold
Compound: rhodamine 123 [R123]

Compound: TGFβ
Resazurin conversion (overall tissue metabolic activity) [7]: No statistically significant differences
GGT activity (epithelial cell function) [8]: Statistically significant reduction in RPTEC function was detected with higher doses; also recorded: loss of epithelial cell function at the highest dose
fibrosis-related gene expression (COL1A1, CTGF, FAP, PDGFRB) [9]: induction of the fibrotic markers; also recorded: increase in the expression of fibrosis-related genes
tissue thickness and extracellular matrix deposition [10]: induces tissue thickening and increased extracellular matrix deposition; also recorded: extensive ECM deposition in the interstitium

Compound: insulin: Insulin-Transferrin-Selenium (Gibco) used to stimulate glucose uptake
increase in intracellular 2-DG ([5]; tissues in normal tissue media): 4 fold
increase in glucose uptake ([5]; tissues starved overnight): 8 fold

Compound: CN/C(=N/CCSCc1nc[nH]c1C)NC#N [cimetidine]
RPTEC proliferation (PCNA) [3]: low levels of RPTEC proliferation
protection against cisplatin-induced loss of viability and epithelial function [11]: successfully protected
urinary cystatin C following cisplatin administration [12]: decreased urinary cystatin C

Papp ([13]; mean): 2.97 ± 0.17 ×10^−6 cm/s
average Papp ([13]; Lucifer yellow, 3D PT tissues): 2.97 ×10⁻⁶ cm/s
Compound: Lucifer yellow
Papp [13]: 2.93e-06 cm/s and 2.63e-06 cm/s and 2.73e-06 cm/s and 2.66e-06 cm/s and 3.74e-06 cm/s and 3.11e-06 cm/s

angiotensin II detected [14]: 0.4 pg/mL
Compound: angiotensin I: human angiotensin I (Abcam), ACE substrate (DRVYIHPFHL; Angiotensin-1; UniProt P01019 25-34, looked up)
